We go through one molecule from patent US9512425B2, “Inhibiting migration of cancer cells” (Cornell University, priority 2012, dated 2016).

In one experiment the test system is MDA cells. Kind of experiment: Wound healing / transwell migration with BAPTA-AM, MDA cells. Format: cell-based, human. The settings on record: 20 μM BAPTA-AM. The method, then:
(§1) Cells were plated in triplicate into 6-well plates (5×10^5 cell/well) and cultured in DMEM containing 10% FBS. A scratch wounded was generated using sterile plastic 200 μl pipette tip, and floating debris removed by washing with PBS. Cell migration was photographed and measured under phase-contrast microscopy. To measure cell migration after depletion of intracellular calcium, a scratch was made and the wound healing was monitored for 48 hr in the presence of 20 μM of BAPTA-AM (Invitrogen). The percentage of wound healed area was measured as a ratio of occupied area to the total area using Image J program (NIH).

For a further experiment, the system named is MDA-MB-436 cells. Kind of experiment: Wound healing migration with BAPTA-AM, MDA-MB-436 cells. In kind it is cell-based, human. Particulars: MDA-MB-436 cells expressing miR-708, BAPTA-AM 20 μM, 48 hours. How it is done:
as §1

Take `CC(=O)OCOC(=O)CN(CC(=O)OCOC(C)=O)c1ccccc1OCCOc1ccccc1N(CC(=O)OCOC(C)=O)CC(=O)OCOC(C)=O` [BAPTA-AM]: the results for the cell migration entry in the experiment with MDA cells (MDA control cells), with MDA cells (MDA-miR708 cells) and in the experiment with MDA-MB-436 cells were “dramatic impairment”, “remained less affected” and “rescued the migration defects”, respectively.
